Assay results as given in publication PMC10974018, “The Development and Characterization of Novel Ionic Liquids Based on Mono- and Dicarboxylates with Meglumine for Drug Solubilizers and Skin Permeation Enhancers” (Pharmaceutics, 2024).

What was measured:
[1] = cited from earlier work
[2] = cited from earlier work; remark: listed apart in the source
[3] = Solubility capability of drug-in-IL (organic acid/MGM ionic liquids), confirmed by PXRD; type: physicochemical; settings: for upper limit of drug dissolution in IL: PXRD
[4] = as above; type: physicochemical; settings: for upper limit of drug dissolution in IL: in GA-MGM 1:1, PXRD
Method: […] Next, 1, 10, 20… w/w% of each drug and water and ethanol as the solvent was added to the MGM and organic acid solution, and then the preparation was sonicated to be completely dissolved. The resulting solution was evaporated using a thermostat at 65 °C and then vacuum-dried at 40 °C for 24 h.
The solubilization power of ILs is attributed to a range of interactions, such as ionic, van der Waals, π–π, and hydrogen bonding. […] To determine the solubility capability of the ILs, drug-in-IL complexes were prepared. Subsequently, these complexes were analyzed via PXRD to confirm dissolution. PXRD is a technique used to validate the crystalline structure of a drug or excipients in a preparation. The absence of a drug’s crystal form in PXRD indicates the complete solubilization of the drug in the IL.

Molecule	Log P [1]	pKa [2]	further results
O=C(O)C(O)C(O)C(=O)O (centres unmarked) [Tartaric acid (TA), Tartaric acid]	−1.8	–	–
COC1=C(OC)C(=O)C(C/C=C(\C)CC/C=C(\C)CC/C=C(\C)CC/C=C(\C)CC/C=C(\C)CC/C=C(\C)CC/C=C(\C)CC/C=C(\C)CC/C=C(\C)CCC=C(C)C)=C(C)C1=O [Coenzyme Q10 (CoQ10), Coenzyme Q10]	9.94	10.9	upper limit of drug dissolution in IL ([3]; in AA-MGM 1:2): greater than 10%
C[C@@H]1O[C@@H](OC[C@H]2O[C@@H](Oc3c(-c4ccc(O)c(O)c4)oc4cc(O)cc(O)c4c3=O)[C@H](O)[C@@H](O)[C@@H]2O)[C@H](O)[C@H](O)[C@H]1O [Rutin]	−1.33	6.43	upper limit of drug dissolution in IL [4]: ≥ 20%; upper limit of drug dissolution in IL ([3]; in AA-MGM 1:2): greater than 10%
CC1COc2c(N3CCN(C)CC3)c(F)cc3c(=O)c(C(=O)O)cn1c23 (centres unmarked) [Ofloxacin (OFLX), Ofloxacin]	−0.48	–	pKa1 [2]: 5.97; pKa2 [2]: 9.28
Curcumin [Curcumin (CCM)]	–	8.09	–
CC(C(=O)O)c1ccc(-c2ccccc2)c(F)c1 (centres unmarked) [Flurbiprofen (FRP), Flurbiprofen]	–	3.78	upper limit of drug dissolution in IL [4]: ≥ 20%; upper limit of drug dissolution in IL ([3]; in AA-MGM 1:2): greater than 10%; upper limit of drug dissolution in IL ([3]; in TA-MGM 1:2): 10%
CCOc1ccccc1C(N)=O [Ethenzamide (ETZ), Ethenzamide]	1.02	13.7	–
O=C(O)CCCCCCCC(=O)O [Azelaic acid (AA), Azelaic acid]	1.57	4.55	–
C[C@H](CS)C(=O)N1CCC[C@H]1C(=O)O [Captopril (CPP), Captopril]	–	3.64	upper limit of drug dissolution in IL [4]: ≥ 20%; upper limit of drug dissolution in IL ([3]; in AA-MGM 1:2): greater than 10%; upper limit of drug dissolution in IL ([3]; in TA-MGM 1:2): 80%
O=[N+]([O-])O[C@@H]1CO[C@H]2[C@@H]1OC[C@@H]2O [Isosorbide mononitrate (ISMN), Isosorbide mononitrate]	−0.15	–	upper limit of drug dissolution in IL [4]: ≥ 20%; dissolution of drug in IL by PXRD (drug-derived crystal peaks) ([3]; 5% and 10% drug in TA-MGM 1:2): cannot be completely dissolved; upper limit of drug dissolution in IL ([3]; in AA-MGM 1:2): greater than 10%
Minoxidil [Minoxidil (MXD)]	1.24	4.61	–
Oc1ncnc2[nH]ncc12 [Allopurinol (ALP), Allopurinol]	−1.80	9.34	–
COc1ccccc1OCCNCC(O)COc1cccc2[nH]c3ccccc3c12 (centres unmarked) [Carvedilol (CVD), Carvedilol]	4.19	–	–
CC(C)=CCC/C(C)=C/C(=O)O [Geranic acid (GA), Geranic acid]	3.07	5.26	–
COc1cc(/C=C/C(=O)O)ccc1O [Ferulic acid (FA), Ferulic acid]	–	4.58	–
CNC[C@H](O)[C@@H](O)[C@H](O)[C@H](O)CO [Meglumine (MGM), Meglumine]	–	9.52	–
CC(C)N(CCC(C(N)=O)(c1ccccc1)c1ccccn1)C(C)C (centres unmarked) [Disopyramide (DPA), Disopyramide]	–	–	solubility in ILs ([4]; all ILs (TA/MGM, AA/MGM, GA/MGM, CPA/MGM)): 100%
